Measurements published in the NIST ThermoML archive (doi:10.1021/je060271a).
“And” between values parts separate entries of the source, which are not always exact repeats. Identical values can stand only once.

Conditions: 283.14 K, Liquid, Vibrating tube method

CCCCCCC(=O)OCC(COC(=O)CCCCCC)(COC(=O)CCCCCC)COC(=O)CCCCCC [pentaerythritol tetraheptanoate]
Conditions | mass density
4385.6 kPa | 988.4 kg/m3
4385.7 kPa | 988.4 kg/m3 and 988.5 kg/m3
4385.8 kPa | 988.4 kg/m3
4385.9 kPa | 988.3 kg/m3 and 988.4 kg/m3 and 988.5 kg/m3
4386 kPa | 988.4 kg/m3 and 988.3 kg/m3
4386.1 kPa | 988.5 kg/m3 and 988.4 kg/m3 and 988.3 kg/m3
4386.2 kPa | 988.4 kg/m3
4386.5 kPa | 988.5 kg/m3
4386.7 kPa | 988.4 kg/m3
4387 kPa | 988.3 kg/m3 and 988.4 kg/m3
4387.4 kPa | 988.4 kg/m3
4388.1 kPa | 988.3 kg/m3
4388.6 kPa | 988.5 kg/m3
4392.2 kPa | 988.4 kg/m3
4392.3 kPa | 988.5 kg/m3
4393.3 kPa | 988.3 kg/m3
4394 kPa | 988.5 kg/m3
4394.1 kPa | 988.5 kg/m3
4394.5 kPa | 988.4 kg/m3
4394.7 kPa | 988.4 kg/m3
4395.2 kPa | 988.5 kg/m3 and 988.4 kg/m3
4395.7 kPa | 988.4 kg/m3
4396 kPa | 988.4 kg/m3
4396.2 kPa | 988.5 kg/m3
4396.6 kPa | 988.4 kg/m3
4401.3 kPa | 988.5 kg/m3
4404.8 kPa | 988.5 kg/m3
4409.8 kPa | 988.5 kg/m3
4413.5 kPa | 988.4 kg/m3
4417.1 kPa | 988.4 kg/m3
4421.1 kPa | 988.4 kg/m3
4425.8 kPa | 988.5 kg/m3
4429.6 kPa | 988.5 kg/m3
4433.4 kPa | 988.4 kg/m3
4437.9 kPa | 988.4 kg/m3
4441.9 kPa | 988.6 kg/m3
4445.5 kPa | 988.5 kg/m3
4450.3 kPa | 988.4 kg/m3
4452.1 kPa | 988.5 kg/m3
4456.8 kPa | 988.4 kg/m3
4460.9 kPa | 988.4 kg/m3
4464.4 kPa | 988.4 kg/m3
4469.4 kPa | 988.4 kg/m3
4473.1 kPa | 988.5 kg/m3
4476.9 kPa | 988.5 kg/m3
4480.5 kPa | 988.4 kg/m3
4485.5 kPa | 988.4 kg/m3
4489.5 kPa | 988.4 kg/m3
4493.3 kPa | 988.5 kg/m3
4498.2 kPa | 988.4 kg/m3
4502.1 kPa | 988.4 kg/m3
4505.9 kPa | 988.5 kg/m3
4509.9 kPa | 988.5 kg/m3
4513.7 kPa | 988.6 kg/m3
4518.2 kPa | 988.4 kg/m3
4521.7 kPa | 988.5 kg/m3
4525.7 kPa | 988.5 kg/m3
4529.3 kPa | 988.5 kg/m3
4533.1 kPa | 988.5 kg/m3
4539.2 kPa | 988.5 kg/m3
4548.9 kPa | 988.4 kg/m3
4556.8 kPa | 988.5 kg/m3
4564.8 kPa | 988.5 kg/m3
4572.9 kPa | 988.5 kg/m3
4583.2 kPa | 988.6 kg/m3
4591.3 kPa | 988.5 kg/m3
4599.9 kPa | 988.5 kg/m3
4607.7 kPa | 988.6 kg/m3
4617.4 kPa | 988.5 kg/m3
4625.9 kPa | 988.5 kg/m3
4635.9 kPa | 988.4 kg/m3
4644.3 kPa | 988.5 kg/m3
4652.7 kPa | 988.5 kg/m3
4663.3 kPa | 988.5 kg/m3
4671.8 kPa | 988.5 kg/m3
4680.4 kPa | 988.5 kg/m3
4689.1 kPa | 988.6 kg/m3
4697.7 kPa | 988.5 kg/m3
4708.3 kPa | 988.6 kg/m3
4717 kPa | 988.6 kg/m3
4726.5 kPa | 988.6 kg/m3
4737 kPa | 988.7 kg/m3
4746.4 kPa | 988.9 kg/m3
4755 kPa | 988.6 kg/m3
4774.4 kPa | 988.7 kg/m3
4781.5 kPa | 988.6 kg/m3
4786.9 kPa | 988.6 kg/m3
4792.4 kPa | 988.5 kg/m3
4799.3 kPa | 988.6 kg/m3
4804.7 kPa | 988.7 kg/m3
4810.6 kPa | 988.6 kg/m3
4816.1 kPa | 988.7 kg/m3
4823 kPa | 988.6 kg/m3
4828.9 kPa | 988.7 kg/m3
4834.3 kPa | 988.7 kg/m3
4841.2 kPa | 988.6 kg/m3
4847.3 kPa | 988.7 kg/m3
4853.2 kPa | 988.7 kg/m3
4858.7 kPa | 988.6 kg/m3
4865.8 kPa | 988.6 kg/m3
4871.7 kPa | 988.8 kg/m3
4877.4 kPa | 988.7 kg/m3
4884.1 kPa | 988.6 kg/m3
4890 kPa | 988.7 kg/m3
4895.9 kPa | 988.8 kg/m3
4902.8 kPa | 988.7 kg/m3
4908.7 kPa | 988.8 kg/m3
4914.6 kPa | 988.7 kg/m3
4920.6 kPa | 988.8 kg/m3
4927.9 kPa | 988.7 kg/m3
4934 kPa | 988.7 kg/m3
4940 kPa | 988.7 kg/m3
